Reference: patent US6737383B1, “Herbicidal oxadiazolidines” (priority 1999, dated 2004)

What was measured:
[1] = test system: bedstraw; assay: Test B pre/postemergence bedstraw; format: in vivo, Galium aparine
Summary of the method: (§1)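 Test chemicals in a non-phytotoxic solvent mixture with surfactant were sprayed preemergence onto planted seeds and postemergence onto plants 2 to 18 cm tall (1- to 4-leaf stage). After twelve to sixteen days in a greenhouse, injury was visually rated against untreated controls from 0 (no effect) to 10 (complete control).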

[2] = test system: blackgrass; assay: Test B pre/postemergence blackgrass; format: in vivo, Alopecurus myosuroides
Summary of the method: as §1

[3] = test system: surinam grass; assay: Test B pre/postemergence surinam grass; format: in vivo, Brachiaria decumbens
Summary of the method: as §1

[4] = test system: cocklebur; assay: Test B pre/postemergence cocklebur; format: in vivo, Xanthium strumarium
Summary of the method: as §1

[5] = test system: corn; assay: Test B pre/postemergence corn; format: in vivo, Zea mays
Summary of the method: as §1

[6] = test system: crabgrass; assay: Test B pre/postemergence crabgrass; format: in vivo, Digitaria sanguinalis
Summary of the method: as §1

[7] = test system: giant foxtail; assay: Test B pre/postemergence giant foxtail; format: in vivo, Setaria faberii
Summary of the method: as §1

[8] = test system: morningglory; assay: Test B pre/postemergence morningglory; format: in vivo, Ipomoea hederacea
Summary of the method: as §1

[9] = test system: pigweed; assay: Test B pre/postemergence pigweed; format: in vivo, Amaranthus retroflexus
Summary of the method: as §1

[10] = test system: rape; assay: Test B pre/postemergence rape; format: in vivo, Brassica napus
Summary of the method: as §1

[11] = test system: soybean; assay: Test B pre/postemergence soybean; format: in vivo, Glycine max
Summary of the method: as §1

[12] = test system: sugar beet; assay: Test B pre/postemergence sugar beet; format: in vivo, Beta vulgaris
Summary of the method: as §1

[13] = test system: velvetleaf; assay: Test B pre/postemergence velvetleaf; format: in vivo, Abutilon theophrasti
Summary of the method: as §1

[14] = test system: wheat; assay: Test B pre/postemergence wheat; format: in vivo, Triticum aestivum
Summary of the method: as §1

[15] = test system: wild oat; assay: Test B pre/postemergence wild oat; format: in vivo, Avena fatua
Summary of the method: as §1

[16] = test system: purple nutsedge; assay: Test B pre/postemergence purple nutsedge; format: in vivo, Cyperus rotundus
Summary of the method: as §1

[17] = Preemergence, Rate 62 g/ha, scale of 0 to 10 where 0 is no effect and 10 is complete control
[18] = Preemergence, Rate 125 g/ha, 0 is no effect, 10 is complete control
[19] = Preemergence, Rate 250 g/ha, scale 0 to 10, 0 is no effect, 10 is complete control
[20] = Preemergence, Rate 500 g/ha, scale 0 to 10 (0 no effect, 10 complete control)
[21] = Rate 62 g/ha, Postemergence, scale of 0 to 10 where 0 is no effect and 10 is complete control
[22] = Rate 125 g/ha, Postemergence, scale 0 to 10
[23] = Rate 500 g/ha, Postemergence, scale 0 to 10

CC(C)N(C(=O)n1oc(=O)n([C@H](C)c2ccccc2)c1=O)c1ccc(F)cc1 [Compound 179]
Bedstraw plant response rating [1, 17]: 0
Bedstraw plant response rating (0 to 10 scale) [1, 18]: 0
Bedstraw plant response rating [1, 19]: 0
Bedstraw plant response rating [1, 20]: 0
Bedstraw plant response rating [1, 21]: 0
Bedstraw plant response rating [1, 22]: 5
Plant response rating (0 to 10; 0 is no effect, 10 is complete control), Bedstraw ([1]; Rate 250 g/ha, Postemergence): 5
Bedstraw plant response rating [1, 23]: 10
Blackgrass plant response rating [2, 17]: 0
Blackgrass plant response rating (0 to 10 scale) [2, 18]: 0
Blackgrass plant response rating [2, 19]: 2
Blackgrass plant response rating [2, 20]: 2
Blackgrass plant response rating [2, 21]: 0
Blackgrass plant response rating [2, 22]: 2
Plant response rating (0 to 10; 0 is no effect, 10 is complete control), Blackgrass ([2]; Rate 250 g/ha, Postemergence): 4
Blackgrass plant response rating [2, 23]: 6
B. signalgrass plant response rating [3, 17]: 7
B. signalgrass plant response rating (0 to 10 scale) [3, 18]: 8
B. signalgrass plant response rating [3, 20]: 9
B. signalgrass plant response rating [3, 21]: 0
B. signalgrass plant response rating ([3]; Rate 125 g/ha, Postemergence, scale 0 (no effect) to 10 (complete control)): 0
Plant response rating, B. signalgrass ([3]; Rate 250 g/ha, Postemergence, scale 0 to 10, 0 is no effect, 10 is complete control): 0
B. signalgrass plant response rating ([3]; Rate 500 g/ha, Postemergence, scale 0 to 10, 0 no effect, 10 complete control): 0
Cocklebur plant response rating [4, 17]: 0
Cocklebur plant response rating (0 to 10 scale) [4, 18]: 0
Cocklebur plant response rating [4, 19]: 0
Cocklebur plant response rating [4, 20]: 0
Cocklebur plant response rating [4, 21]: 0
Cocklebur plant response rating [4, 22]: 0
Plant response rating (0 to 10; 0 is no effect, 10 is complete control), Cocklebur ([4]; Rate 250 g/ha, Postemergence): 0
Cocklebur plant response rating [4, 23]: 1
Corn plant response rating [5, 17]: 0
Corn plant response rating (0 to 10 scale) [5, 18]: 0
Corn plant response rating [5, 19]: 0
Corn plant response rating [5, 20]: 0
Corn plant response rating [5, 21]: 0
Corn plant response rating [5, 22]: 0
Plant response rating (0 to 10; 0 is no effect, 10 is complete control), Corn ([5]; Rate 250 g/ha, Postemergence): 0
Corn plant response rating [5, 23]: 0
Crabgrass plant response rating [6, 17]: 6
Crabgrass plant response rating (0 to 10 scale) [6, 18]: 7
Crabgrass plant response rating [6, 19]: 9
Crabgrass plant response rating [6, 20]: 9
Crabgrass plant response rating [6, 21]: 0
Crabgrass plant response rating [6, 22]: 0
Plant response rating (0 to 10; 0 is no effect, 10 is complete control), Crabgrass ([6]; Rate 250 g/ha, Postemergence): 2
Crabgrass plant response rating [6, 23]: 9
Giant foxtail plant response rating [7, 17]: 6
Giant foxtail plant response rating (0 to 10 scale) [7, 18]: 9
Giant foxtail plant response rating [7, 19]: 10
Giant foxtail plant response rating [7, 20]: 10
Giant foxtail plant response rating [7, 21]: 0
Giant foxtail plant response rating [7, 22]: 0
Plant response rating (0 to 10; 0 is no effect, 10 is complete control), Giant foxtail ([7]; Rate 250 g/ha, Postemergence): 0
Giant foxtail plant response rating [7, 23]: 4
Morningglory plant response rating [8, 17]: 0
Morningglory plant response rating (0 to 10 scale) [8, 18]: 0
Morningglory plant response rating [8, 19]: 0
Morningglory plant response rating [8, 20]: 0
Morningglory plant response rating [8, 21]: 4
Morningglory plant response rating [8, 22]: 5
Plant response rating (0 to 10; 0 is no effect, 10 is complete control), Morningglory ([8]; Rate 250 g/ha, Postemergence): 5
Morningglory plant response rating [8, 23]: 5
Redroot pigweed plant response rating [9, 17]: 7
Redroot pigweed plant response rating (0 to 10 scale) [9, 18]: 7
Redroot pigweed plant response rating [9, 19]: 7
Redroot pigweed plant response rating [9, 20]: 10
Redroot pigweed plant response rating [9, 21]: 0
Redroot pigweed plant response rating [9, 22]: 0
Plant response rating (0 to 10; 0 is no effect, 10 is complete control), Redroot pigweed ([9]; Rate 250 g/ha, Postemergence): 4
Redroot pigweed plant response rating [9, 23]: 8
Rape plant response rating [10, 17]: 0
Rape plant response rating (0 to 10 scale) [10, 18]: 0
Rape plant response rating [10, 19]: 2
Rape plant response rating [10, 20]: 4
Rape plant response rating [10, 21]: 0
Rape plant response rating [10, 22]: 0
Plant response rating (0 to 10; 0 is no effect, 10 is complete control), Rape ([10]; Rate 250 g/ha, Postemergence): 0
Rape plant response rating [10, 23]: 2
Soybean plant response rating [11, 17]: 0
Soybean plant response rating (0 to 10 scale) [11, 18]: 0
Soybean plant response rating [11, 19]: 0
Soybean plant response rating [11, 20]: 0
Soybean plant response rating [11, 21]: 1
Soybean plant response rating [11, 22]: 1
Plant response rating (0 to 10; 0 is no effect, 10 is complete control), Soybean ([11]; Rate 250 g/ha, Postemergence): 1
Soybean plant response rating [11, 23]: 1
Sugarbeets plant response rating [12, 17]: 0
Sugarbeets plant response rating (0 to 10 scale) [12, 18]: 0
Sugarbeets plant response rating [12, 19]: 0
Sugarbeets plant response rating [12, 20]: 0
Sugarbeets plant response rating [12, 21]: 0
Sugarbeets plant response rating [12, 22]: 0
Plant response rating (0 to 10; 0 is no effect, 10 is complete control), Sugarbeets ([12]; Rate 250 g/ha, Postemergence): 2
Sugarbeets plant response rating [12, 23]: 6
Velvetleaf plant response rating [13, 17]: 0
Velvetleaf plant response rating (0 to 10 scale) [13, 18]: 0
Velvetleaf plant response rating [13, 19]: 0
Velvetleaf plant response rating [13, 20]: 5
Velvetleaf plant response rating [13, 22]: 0
Plant response rating (0 to 10; 0 is no effect, 10 is complete control), Velvetleaf ([13]; Rate 250 g/ha, Postemergence): 0
Velvetleaf plant response rating [13, 23]: 3
Wheat plant response rating [14, 17]: 0
Wheat plant response rating (0 to 10 scale) [14, 18]: 0
Wheat plant response rating [14, 19]: 0
Wheat plant response rating [14, 20]: 2
Wheat plant response rating [14, 22]: 0
Plant response rating (0 to 10; 0 is no effect, 10 is complete control), Wheat ([14]; Rate 250 g/ha, Postemergence): 0
Wheat plant response rating [14, 23]: 0
Wild oats plant response rating [15, 17]: 0
Wild oats plant response rating (0 to 10 scale) [15, 18]: 0
Wild oats plant response rating [15, 19]: 0
Wild oats plant response rating [15, 20]: 3
Wild oats plant response rating [15, 22]: 0
Plant response rating (0 to 10; 0 is no effect, 10 is complete control), Wild oats ([15]; Rate 250 g/ha, Postemergence): 0
Wild oats plant response rating [15, 23]: 2
Nutsedge plant response rating [16, 17]: 0
Nutsedge plant response rating (0 to 10 scale) [16, 18]: 0
Nutsedge plant response rating [16, 19]: 0
Nutsedge plant response rating [16, 20]: 10
Nutsedge plant response rating [16, 21]: 0
Nutsedge plant response rating [16, 22]: 0
Plant response rating (0 to 10; 0 is no effect, 10 is complete control), Nutsedge ([16]; Rate 250 g/ha, Postemergence): 0
Nutsedge plant response rating [16, 23]: 0
